From PubChem BioAssay (NCI)
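Tested at 5 concentrations; 48 h exposure; 96-well plates; endpoints linearly interpolated, else capped at highest concentration. GI50 = concentration required for 50% inhibition of growth. TGI: total growth inhibition.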

Assays:
Experiment in all cases: DTP human tumour cell line panel, 48 h
OVCAR-5 ovarian = system: OVCAR-5 ovarian
IGROV1 ovarian = system: IGROV1 ovarian
MOLT-4 leukemia = system: MOLT-4 leukemia
SW-620 colon = system: SW-620 colon
SR leukemia = system: SR leukemia
SK-MEL-28 melanoma = system: SK-MEL-28 melanoma
TK-10 renal = system: TK-10 renal
SNB-75 CNS = system: SNB-75 CNS
ACHN renal = system: ACHN renal
LOX IMVI melanoma = system: LOX IMVI melanoma
SNB-19 CNS = system: SNB-19 CNS
HCT-116 colon = system: HCT-116 colon
HS 578T breast = system: HS 578T breast
UACC-257 melanoma = system: UACC-257 melanoma
M14 melanoma = system: M14 melanoma
HCC-2998 colon = system: HCC-2998 colon
BT-549 breast = system: BT-549 breast
U251 CNS = system: U251 CNS
MDA-MB-435 = system: MDA-MB-435
KM12 colon = system: KM12 colon
NCI-H23 lung = system: NCI-H23 lung
EKVX NSCLC = system: EKVX NSCLC
MCF7 breast = system: MCF7 breast
CCRF-CEM leukemia = system: CCRF-CEM leukemia
OVCAR-4 ovarian = system: OVCAR-4 ovarian
SF-268 CNS = system: SF-268 CNS
MALME-3M melanoma = system: MALME-3M melanoma
NCI-H522 lung = system: NCI-H522 lung
OVCAR-3 ovarian = system: OVCAR-3 ovarian
HT29 colon = system: HT29 colon
HOP-62 NSCLC = system: HOP-62 NSCLC
A498 renal = system: A498 renal
DU-145 prostate = system: DU-145 prostate
SF-539 CNS = system: SF-539 CNS
HL-60(TB) leukemia = system: HL-60(TB) leukemia
T-47D breast = system: T-47D breast
786-0 renal = system: 786-0 renal
SF-295 CNS = system: SF-295 CNS
K-562 leukemia = system: K-562 leukemia
PC-3 prostate = system: PC-3 prostate
NCI/ADR-RES ovarian = system: NCI/ADR-RES ovarian
UACC-62 melanoma = system: UACC-62 melanoma
SN12C renal = system: SN12C renal
MDA-MB-231 breast = system: MDA-MB-231 breast
NCI-H460 lung = system: NCI-H460 lung
A549 NSCLC = system: A549 NSCLC
HOP-92 NSCLC = system: HOP-92 NSCLC
HCT-15 colon = system: HCT-15 colon
SK-MEL-2 melanoma = system: SK-MEL-2 melanoma
OVCAR-8 ovarian = system: OVCAR-8 ovarian
UO-31 renal = system: UO-31 renal
CAKI-1 renal = system: CAKI-1 renal
RPMI-8226 leukemia = system: RPMI-8226 leukemia
RXF 393 renal = system: RXF 393 renal

c1ccc([P+](c2ccccc2)(c2ccccc2)c2ccc3c4ccc([P+](c5ccccc5)(c5ccccc5)c5ccccc5)c5cccc(c6cccc2c63)c54)cc1
GI50 (OVCAR-5 ovarian): 2.82 µM
TGI (OVCAR-5 ovarian): > 100 µM
GI50 (IGROV1 ovarian): 1.41 µM
TGI (IGROV1 ovarian): 7.47 µM
GI50 (MOLT-4 leukemia): 2.37 µM
TGI (MOLT-4 leukemia): 19.3 µM
GI50 (SW-620 colon): 1.98 µM
TGI (SW-620 colon): 10.8 µM
GI50 (SR leukemia): 1.1 µM
TGI (SR leukemia): > 100 µM
GI50 (SK-MEL-28 melanoma): 1.67 µM
TGI (SK-MEL-28 melanoma): 6.15 µM
GI50 (TK-10 renal): 4.18 µM
TGI (TK-10 renal): > 100 µM
GI50 (SNB-75 CNS): 0.435 µM
TGI (SNB-75 CNS): 4.17 µM
GI50 (ACHN renal): 3.79 µM
TGI (ACHN renal): > 100 µM
GI50 (LOX IMVI melanoma): 2.67 µM
TGI (LOX IMVI melanoma): 20.7 µM
GI50 (SNB-19 CNS): 0.714 µM
TGI (SNB-19 CNS): 13.1 µM
GI50 (HCT-116 colon): 1.54 µM
TGI (HCT-116 colon): 10.4 µM
GI50 (HS 578T breast): 0.574 µM
TGI (HS 578T breast): 5.49 µM
GI50 (UACC-257 melanoma): 2.12 µM
TGI (UACC-257 melanoma): 8.47 µM
GI50 (M14 melanoma): 1.39 µM
TGI (M14 melanoma): 7.48 µM
GI50 (HCC-2998 colon): 2.28 µM
TGI (HCC-2998 colon): 8.51 µM
GI50 (BT-549 breast): 0.455 µM
TGI (BT-549 breast): 2.69 µM
GI50 (U251 CNS): 0.445 µM
TGI (U251 CNS): 17.9 µM
GI50 (MDA-MB-435): 0.799 µM
TGI (MDA-MB-435): 4.21 µM
GI50 (KM12 colon): 0.743 µM
TGI (KM12 colon): 3.1 µM
GI50 (NCI-H23 lung): 2.1 µM
TGI (NCI-H23 lung): 13.5 µM
GI50 (EKVX NSCLC): 1.69 µM
TGI (EKVX NSCLC): 35.2 µM
GI50 (MCF7 breast): 1.25 µM
TGI (MCF7 breast): 14.2 µM
GI50 (CCRF-CEM leukemia): 2.13 µM
TGI (CCRF-CEM leukemia): 33.3 µM
GI50 (OVCAR-4 ovarian): 1.89 µM
TGI (OVCAR-4 ovarian): 30.8 µM
GI50 (SF-268 CNS): 0.995 µM
TGI (SF-268 CNS): 20 µM
GI50 (MALME-3M melanoma): 0.412 µM
TGI (MALME-3M melanoma): 2.56 µM
GI50 (NCI-H522 lung): 1.24 µM
TGI (NCI-H522 lung): 13.7 µM
GI50 (OVCAR-3 ovarian): 1.91 µM
TGI (OVCAR-3 ovarian): 11.9 µM
GI50 (HT29 colon): 1.64 µM
TGI (HT29 colon): 13.3 µM
GI50 (HOP-62 NSCLC): 0.931 µM
TGI (HOP-62 NSCLC): 25.8 µM
GI50 (A498 renal): 0.889 µM
TGI (A498 renal): 6.79 µM
GI50 (DU-145 prostate): 0.811 µM
TGI (DU-145 prostate): 13.4 µM
GI50 (SF-539 CNS): 0.477 µM
TGI (SF-539 CNS): 2.32 µM
GI50 (HL-60(TB) leukemia): 2.38 µM
TGI (HL-60(TB) leukemia): 6.25 µM
GI50 (T-47D breast): 0.621 µM
TGI (T-47D breast): 24.6 µM
GI50 (786-0 renal): 3.04 µM
TGI (786-0 renal): 28.8 µM
GI50 (SF-295 CNS): 1.24 µM
TGI (SF-295 CNS): 5.36 µM
GI50 (K-562 leukemia): 0.506 µM
TGI (K-562 leukemia): > 100 µM
GI50 (PC-3 prostate): 1.65 µM
TGI (PC-3 prostate): 14.3 µM
GI50 (NCI/ADR-RES ovarian): 9.41 µM
TGI (NCI/ADR-RES ovarian): > 100 µM
GI50 (UACC-62 melanoma): 1.47 µM
TGI (UACC-62 melanoma): 4.64 µM
GI50 (SN12C renal): 1.09 µM
TGI (SN12C renal): 13.7 µM
GI50 (MDA-MB-231 breast): 2.22 µM
TGI (MDA-MB-231 breast): 9.98 µM
GI50 (NCI-H460 lung): 0.692 µM
TGI (NCI-H460 lung): 3.94 µM
GI50 (A549 NSCLC): 0.986 µM
TGI (A549 NSCLC): > 100 µM
GI50 (HOP-92 NSCLC): 1.18 µM
TGI (HOP-92 NSCLC): 5.44 µM
GI50 (HCT-15 colon): 5.89 µM
TGI (HCT-15 colon): > 100 µM
GI50 (SK-MEL-2 melanoma): 2.57 µM
TGI (SK-MEL-2 melanoma): 7.58 µM
GI50 (OVCAR-8 ovarian): 1.32 µM
TGI (OVCAR-8 ovarian): > 100 µM
GI50 (UO-31 renal): 2.73 µM
TGI (UO-31 renal): 78.3 µM
GI50 (CAKI-1 renal): 6.15 µM
TGI (CAKI-1 renal): > 100 µM
GI50 (RPMI-8226 leukemia): 0.647 µM
TGI (RPMI-8226 leukemia): 4.16 µM
GI50 (RXF 393 renal): 2.79 µM
TGI (RXF 393 renal): 25.3 µM
